From patent publication US7947854B2, “Bis-cationic compounds and use thereof” (The University of Sydney, priority 2003, dated 2011)
Values after ≈ are worked out from the molar mass of the structure shown. Read-outs that look alike come from different tables or passages of the source.

Columns and labels:
[1] = system: secreted phospholipase B (PLB activity); test: Radiometric assay, secreted PLB activity; type: biochemical, Cryptococcus neoformans H99; conditions: for PLB, percentage inhibition of activity: Secretory Cryptococcal H99 Phospholipase
In short: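 Secreted enzyme was taken from cell-free supernatant of Cryptococcus isolate H99 cells incubated 24 h at 37° C. Reactions at 37° C, pH 4.0 imidazole acetate, used 800 μM DPPC with [14C]-dipalmitoyl PC and 1 μg protein for 22 min. PLB was measured as radiolabelled PC loss by TLC, with inhibition expressed versus inhibitor-free control; compounds were tested at 25 and 250 μM, then 2.5 and 0.25 μM.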

[2] = system: secreted phospholipase B (LPL/LPTA activities); test: Radiometric assay, secreted LPL and LPTA activities (Lyso assay); type: biochemical, Cryptococcus neoformans H99
Experimental: Fungal isolates and media. […] Isolate H99 was kindly supplied by Dr. Gary Cox (Duke University Medical Center, Durham, N.C., USA), and subcultured onto Sabouraud dextrose agar (SDA) at 30° C.
Preparation of supernatants containing secreted phospholipase activities. Isolate H99 was grown to confluence on SDA in 16 cm diameter Petri dishes for 72 h at 30° C. in air. Cells scraped from 10-20 dishes were washed sequentially with isotonic saline and imidazole buffer (10 mM imidazole, 2 mM CaCl2, 2 mM Mg Cl2, 56 mM D-Glucose, made up in isotonic saline, pH 5.5), resuspended in a volume of this buffer of about 10% of the cell volume, and incubated for 24 h at 37° C. The cell-free supernatant was separated by centrifugation as previously described and stored at −70° C.
(§1) Secreted LPL and LPTA activities were measured simultaneously in a reaction mixture containing 1-[^14C]palmitoyl lyso-PC (25,000 dpm) and carrier lyso-PC (final concentration 200 μM) in assay buffer. The reaction time was […] with 1 μg of total protein and LPL activity was measured by the rate of loss of 1-[^14C]palmitoyl lyso-PC with release of radiolabelled fatty acids. LPTA activity was estimated from the rate of formation of radiolabelled PC.
All reactions were terminated by adding 0.5 mL of chloroform:methanol (2:1 v/v). The reaction products were extracted by the method as disclosed in Bligh, E. C. and W. J. Dyer. 1959 ‘A rapid method of total lipid extraction and purification.’ Can. J. Biochem. Physiol. 37:911-917, separated by TLC and quantified as previously described. In the case of PLC activity, the TLC plates were developed in petroleum ether (BP 60-80° C.): diethyl ether: acetic acid (90:15:1, v/v/v) instead of chloroform:methanol:water (65:25:4, v/v/v).
Preparation of inhibitors and use in assays. The following compounds were tested (for structures, see FIG. 2): compound 1, 1,12-bis(tributylphosphonium)dodecane dibromide (Fluka AG, Buchs, Switzerland); compound 2, 1,10-bis(tributylammonium)-decane dibromide; compound 3, 1,12-bis(tributylammonium)do-decane dibromide (both synthesised in-house); compound 4, 1,10-bis(trimethylammonium)decane dibromide [“decamethonium”] (Sigma, St. Louis Mo., USA). All compounds were prepared as stock solutions of 700 μM in assay buffer containing 5 mM EDTA, which was then diluted serially with buffer to obtain solutions of 70, 7, 0.7 and 0.07 μM. In each assay, 45 μL of these solutions was used, and the final volume of 125 μL was made up of substrate, enzyme and buffer. The radiometric assay was carried out as above. Inhibition was calculated as the percent of substrates (DPPC or Lyso-PC) remaining in the case of PLB and LPL activities, or of DPPC produced, in the case of the LPTA activity. The amounts converted, or produced, in the inhibitor-free control were normalised to 100%, and the inhibition calculated against it. All assays were done in triplicate.
Under these conditions only PLB, LPL and LPTA activities (both secreted and cell-associated) were measured. Initially, compounds deemed to be potential inhibitors were assayed at 25 and 250 μM. Those showing some inhibition were then also assayed at 2.5 and 0.25 μM.

[3] = biological target: T1, Porcine pancreatic phospholipase A2 (Sus scrofa, UniProt P00592); test: Pancreatic phospholipase assay; type: biochemical; conditions: read-out: ppPLA2, percentage inhibition of activity
T1 construct: purchased Sigma, St. Louis MO, USA
Experimental: Pancreatic phospholipase assay. Porcine pancreatic phospholipase A2 suspension in 3.2M ammonium sulfate (2.9 mg protein/mL, Sigma St.Louis Mo., USA) was used. One part of well mixed enzyme suspension was added to 4 parts of buffer (10 mM Tris/HCl, pH 8.2; 10 mM CaCl2. Activity and inhibition by test compounds was then measured by the radiometric method described in Example 2 for fungal PLB activity. However, 25 μL enzyme solution was used, and the reaction time was 1 hour. These conditions result in ˜60% substrate conversion in the inhibitor-free control.

[4] = system: C. neoformans strain H99 phospholipases; test: Inhibition of C. neoformans strain H99 phospholipases (all enzymes and activities); type: biochemical, Cryptococcus neoformans H99
Experimental: Radiometric assay method for phospholipases. Enzyme activities were measured as described previously in a final volume of 125 μL at 37° C. For the determination of secreted PLB activity, carrier dipalmitoyl phosphatidylcholine (DPPC, final concentration 800 μM) and 1,2-di[1-^14C] palmitoyl phosphatidylcholine (20,000 dpm) were dried under nitrogen and suspended in 125 mM imidazole acetate buffer (assay buffer, pH 4.0) by sonication using a Branson 450 sonifier. The reaction time was 22 min, using 1 μg total protein and PLB activity was determined by the rate of decrease of the radiolabelled PC substrate, with appearance of the label in free fatty acid. […] These activities were measured by the appearance of radiolabel from PC in Lyso PC, diacylglycerol and phosphatidic acid, respectively.
as §1, with “LPTA activity was estimated from the rate of formation of radiolabelled PC.” left out
All reactions were terminated by adding 0.5 mL of chloroform:methanol (2:1 v/v). […] 37:911-917, separated by TLC and quantified as previously described. […]

[5] = system: Candida albicans ATCC 10231; test: Antifungal susceptibility testing, microdilution MIC; type: cell-based; conditions: Candida albicans, ATCC10231
In short: (§2)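 Standard microdilution method, run in duplicate, using serial dilutions of cationic compounds.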

[6] = system: Cryptococcus neoformans ATCC 90112; test: as above; type: cell-based; conditions: Cryptococcus neoformans, ATCC90112
In short: as §2

[7] = system: MRSA (methicillin resistant S. aureus); test: In vitro antibacterial activity, NCCLS M7-A6; type: cell-based; conditions: Staphylococcus aureus, read-out: MIC MRSA (methicillin resistant S. aureus)
Experimental: Two bis-cationic compounds were tested for antibacterial activity. The assay used was that published by the National Committee for Clinical Laboratory Standards. 2003. Methods for Dilution Antimicrobial Susceptibility Tests for Bacteria That Grow Aerobically: Approved Standard—Sixth Edition. NCCLS document M7-A6. Villanova, Pa., USA.

T1 sequence (P00592 23-146): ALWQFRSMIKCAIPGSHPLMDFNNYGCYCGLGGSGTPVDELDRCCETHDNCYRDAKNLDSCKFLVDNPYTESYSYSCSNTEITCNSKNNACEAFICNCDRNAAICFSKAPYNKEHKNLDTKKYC

SMILES: C[N+](C)(C)CCCCCCCCCC[N+](C)(C)C [Compound 4, 1,10-bis(trimethylammonium)decane dibromide, reference compound]
- PLB assay (% inhibition) ([1]; 0.25 μM): 250 μM = 0% 25 μM = 0% 2.5 μM = 0% 0.25 μM = 0%
- PLB assay (% inhibition) ([1]; 2.5 μM): 250 μM = 0% 25 μM = 0% 2.5 μM = 0% 0.25 μM = 0%
- PLB, percentage inhibition of activity ([1]; 2.5 μM): 0%
- PLB assay (% inhibition) ([1]; 25 μM): 250 μM = 0% 25 μM = 0% 2.5 μM = 0% 0.25 μM = 0%
- PLB, percentage inhibition of activity ([1]; 25 μM): 0%
- PLB assay (% inhibition) ([1]; 250 μM): 250 μM = 0% 25 μM = 0% 2.5 μM = 0% 0.25 μM = 0%
- PLB, percentage inhibition of activity ([1]; 250 μM): 0%
- Lyso assay (% inhibition) LPL ([2]; 0.25 μM): 250 μM = 0% 25 μM = 0% 2.5 μM = 0% 0.25 μM = 0%
- Lyso assay (% inhibition) LPTA ([2]; 0.25 μM): 250 μM = 0% 25 μM = 0% 2.5 μM = 0% 0.25 μM = 0%
- Lyso assay (% inhibition) LPL ([2]; 2.5 μM): 250 μM = 0% 25 μM = 0% 2.5 μM = 0% 0.25 μM = 0%
- Lyso assay (% inhibition) LPTA ([2]; 2.5 μM): 250 μM = 0% 25 μM = 0% 2.5 μM = 0% 0.25 μM = 0%
- Lyso assay (% inhibition) LPL ([2]; 25 μM): 250 μM = 0% 25 μM = 0% 2.5 μM = 0% 0.25 μM = 0%
- Lyso assay (% inhibition) LPTA ([2]; 25 μM): 250 μM = 0% 25 μM = 0% 2.5 μM = 0% 0.25 μM = 0%
- Lyso assay (% inhibition) LPL ([2]; 250 μM): 250 μM = 0% 25 μM = 0% 2.5 μM = 0% 0.25 μM = 0%
- Lyso assay (% inhibition) LPTA ([2]; 250 μM): 250 μM = 0% 25 μM = 0% 2.5 μM = 0% 0.25 μM = 0%
- inhibition at 2.5 µM [3]: 0%
- inhibition at 25 µM [3]: 0%
- inhibition at 250 µM [3]: 0%
- enzyme (phospholipase) inhibition, in words [4]: neither enzyme inhibition
- MIC ([5]; Table 6, no visible growth after 48 h at 35° C., read-out: MIC C. albicans ATCC 10231): > 350 µM
- MIC ([5]; Table 7, read-out: MIC (μM) C. alb. (10231)): ≥ 350 µM
- MIC ([6]; Table 6, no visible growth after 72 h at 35° C., read-out: MIC C. neof. ATCC 90112): 88 µM
- MIC ([6]; Table 7, read-out: MIC (μM) Crypto. (ATCC 90112)): ≥ 350 µM

SMILES: CN[C@H](CC(C)C)C(=O)N[C@H]1C(=O)N[C@@H](CC(N)=O)C(=O)N[C@H]2C(=O)N[C@H]3C(=O)N[C@H](C(=O)N[C@H](C(=O)O)c4cc(O)cc(O)c4-c4cc3ccc4O)[C@H](O)c3ccc(c(Cl)c3)Oc3cc2cc(c3O[C@@H]2O[C@H](CO)[C@@H](O)[C@H](O)[C@H]2O[C@H]2C[C@](C)(N)[C@H](O)[C@H](C)O2)Oc2ccc(cc2Cl)[C@H]1O [vancomycin, reference compound]
- MIC [7]: 1 µg/mL (≈ 0.69 µM)
